This assay deals with PBMC. Put plainly: Inhibition of LPS-stimulated TNF-alpha release in human PBMC at 600 ng/ml after 20 hrs by ELISPOT test. The class given is functional, cell-based.

Activity calls are given as the source filed them. The rule behind the calls is not given here.

`C[C@@H]1C[C@H]2[C@@H]3CCC4=CC(=O)C=C[C@]4(C)[C@@]3(F)[C@@H](O)C[C@]2(C)[C@@]1(O)C(=O)CO`: the inhibition result was “Active”.
